Measurements: patent US20110039721A1, “METHOD FOR PREDICTION ABOUT CARCINOGENICITY OF SUBSTANCE IN RODENT” (Chemicals Evaluation and Research Institute, priority 2007, published 2011)

System: mRNA expressed from the genes (A) to (D) in rat liver
Test: Behavior of genes (mRNA expression level, oligo-DNA microarray) in rat liver after 28-day oral administration
Format: in vivo
Details: for Behavior of gene caused by administration of chemical substance, Gene No. 4846 / Behavior of gene caused by administration of chemical substance, Gene No. 2026 / Behavior of gene caused by administration of chemical substance, Gene No. 4218 / Behavior of gene caused by administration of chemical substance, Gene No. 6182 / Behavior of gene caused by administration of chemical substance, Gene No. 5600: gene group (A); for Behavior of gene caused by administration of chemical substance, Gene No. 4846: Unigene No. Rn.144554; for Behavior of gene caused by administration of chemical substance, Gene No. 2026 / Behavior of gene caused by administration of chemical substance, Gene No. 4218: Unigene No. Rn.167075; for Behavior of gene caused by administration of chemical substance, Gene No. 6182: Unigene No. Rn.5834; for Behavior of gene caused by administration of chemical substance, Gene No. 5600: Unigene No. Rn.9836; for Behavior of gene caused by administration of chemical substance, Gene No. 1494 / Behavior of gene caused by administration of chemical substance, Gene No. 2045 / Behavior of gene caused by administration of chemical substance, Gene No. 2203: gene group (B); for Behavior of gene caused by administration of chemical substance, Gene No. 1494: Unigene No. Rn.1430; for Behavior of gene caused by administration of chemical substance, Gene No. 2045: Unigene No. Rn.19329; for Behavior of gene caused by administration of chemical substance, Gene No. 2203: Unigene No. Rn.21240; for Behavior of gene caused by administration of chemical substance, Gene No. 533 / Behavior of gene caused by administration of chemical substance, Gene No. 725 / Behavior of gene caused by administration of chemical substance, Gene No. 1163 / Behavior of gene caused by administration of chemical substance, Gene No. 4973 / Behavior of gene caused by administration of chemical substance, Gene No. 4095 / Behavior of gene caused by administration of chemical substance, Gene No. 1334 / Behavior of gene caused by administration of chemical substance, Gene No. 6620 / Behavior of gene caused by administration of chemical substance, Gene No. 6303 / Behavior of gene caused by administration of chemical substance, Gene No. 5878 / Behavior of gene caused by administration of chemical substance, Gene No. 1131 / Behavior of gene caused by administration of chemical substance, Gene No. 1562 / Behavior of gene caused by administration of chemical substance, Gene No. 1741 / Behavior of gene caused by administration of chemical substance, Gene No. 893 / Behavior of gene caused by administration of chemical substance, Gene No. 6026 / Behavior of gene caused by administration of chemical substance, Gene No. 154 / Behavior of gene caused by administration of chemical substance, Gene No. 1993 / Behavior of gene caused by administration of chemical substance, Gene No. 813 / Behavior of gene caused by administration of chemical substance, Gene No. 2494 / Behavior of gene caused by administration of chemical substance, Gene No. 2546 / Behavior of gene caused by administration of chemical substance, Gene No. 3776 / Behavior of gene caused by administration of chemical substance, Gene No. 3929 / Behavior of gene caused by administration of chemical substance, Gene No. 1119 / Behavior of gene caused by administration of chemical substance, Gene No. 6742 / Behavior of gene caused by administration of chemical substance, Gene No. 5634: gene group (C); for Behavior of gene caused by administration of chemical substance, Gene No. 533: Unigene No. Rn.106184; for Behavior of gene caused by administration of chemical substance, Gene No. 725: Unigene No. Rn.108075; for Behavior of gene caused by administration of chemical substance, Gene No. 1163: Unigene No. Rn.11766; for Behavior of gene caused by administration of chemical substance, Gene No. 4973: Unigene No. Rn.118529; for Behavior of gene caused by administration of chemical substance, Gene No. 4095: Unigene No. Rn.119024; for Behavior of gene caused by administration of chemical substance, Gene No. 1334 / Behavior of gene caused by administration of chemical substance, Gene No. 6620: Unigene No. Rn.120914; for Behavior of gene caused by administration of chemical substance, Gene No. 6303: Unigene No. Rn.123063; for Behavior of gene caused by administration of chemical substance, Gene No. 5878: Unigene No. Rn.143213; for Behavior of gene caused by administration of chemical substance, Gene No. 1131: Unigene No. Rn.144946; for Behavior of gene caused by administration of chemical substance, Gene No. 1562: Unigene No. Rn.14744; for Behavior of gene caused by administration of chemical substance, Gene No. 1741: Unigene No. Rn.1647; for Behavior of gene caused by administration of chemical substance, Gene No. 893: Unigene No. Rn.164817; for Behavior of gene caused by administration of chemical substance, Gene No. 6026: Unigene No. Rn.167685; for Behavior of gene caused by administration of chemical substance, Gene No. 154: Unigene No. Rn.185941; for Behavior of gene caused by administration of chemical substance, Gene No. 1993: Unigene No. Rn.18728; for Behavior of gene caused by administration of chemical substance, Gene No. 813: Unigene No. Rn.201760; for Behavior of gene caused by administration of chemical substance, Gene No. 2494: Unigene No. Rn.23969; for Behavior of gene caused by administration of chemical substance, Gene No. 2546: Unigene No. Rn.24561; for Behavior of gene caused by administration of chemical substance, Gene No. 3776: Unigene No. Rn.43232; for Behavior of gene caused by administration of chemical substance, Gene No. 3929: Unigene No. Rn.4620; for Behavior of gene caused by administration of chemical substance, Gene No. 1119: Unigene No. Rn.9757; for Behavior of gene caused by administration of chemical substance, Gene No. 6742: Unigene No. Rn.9779; for Behavior of gene caused by administration of chemical substance, Gene No. 5634: Unigene No. Rn.9862; for Behavior of gene caused by administration of chemical substance, Gene No. 5726: gene group (D), Unigene No. Rn.9939
Description: A test solution was prepared by dissolving each of the carcinogens and the non-carcinogens shown in Tables 2 to 6 in the corresponding solvent shown in Tables 2 to 6. Each of the thus prepared test solutions and the solvents used for the preparation was administered by oral gavage to rats in each group. As the rats, male rats (F344 SPF rats) at 5 weeks of age obtained from Charles River Laboratories Japan, Inc. were used. The animals were divided into groups, each containing four individuals. The volume of the solvent administered to the vehicle control group was set to the same volume as that of the test solution administered to the carcinogen administration group or the non-carcinogen administration group. The administration of the test solution or the solvent was performed once daily for 28 days. Apiece was excised from the liver of each of the rats after a lapse of 28 days from the initiation of the administration, and the total RNA was extracted and purified.
The expression level of mRNA was compared between each of the chemical substance administration groups and the corresponding vehicle control group, and genes that satisfy the requirements described in (A) to (D) were selected, respectively.
The case where the expression level of mRNA in the carcinogen administration group or the non-carcinogen administration group is 1.5 times or more or 1/1.5 or less of the expression level of the corresponding mRNA expressed in the control group was determined to be significant. In this connection, the determination as to whether or not the change is significant was performed by taking into consideration the direction of increase or decrease in the expression level. In the case where the direction of increase or decrease is different as compared with the case where another carcinogen was administered, the change was determined to be not significant.

## c1ccc2c(c1)cc1ccc3cccc4ccc2c1c34 [TS063, Benzo[a]pyrene]
mRNA vs vehicle control group
  Behavior of gene caused by administration of chemical substance, Gene No. 4846: −
  Behavior of gene caused by administration of chemical substance, Gene No. 2026: +
  Behavior of gene caused by administration of chemical substance, Gene No. 4218: −
  Behavior of gene caused by administration of chemical substance, Gene No. 6182: +
  Behavior of gene caused by administration of chemical substance, Gene No. 5600: −
  Behavior of gene caused by administration of chemical substance, Gene No. 1494: −
  Behavior of gene caused by administration of chemical substance, Gene No. 2045: +
  Behavior of gene caused by administration of chemical substance, Gene No. 2203: +
  Behavior of gene caused by administration of chemical substance, Gene No. 533: −
  Behavior of gene caused by administration of chemical substance, Gene No. 725: −
  Behavior of gene caused by administration of chemical substance, Gene No. 1163: −
  Behavior of gene caused by administration of chemical substance, Gene No. 4973: −
  Behavior of gene caused by administration of chemical substance, Gene No. 4095: −
  Behavior of gene caused by administration of chemical substance, Gene No. 1334: −
  Behavior of gene caused by administration of chemical substance, Gene No. 6620: −
  Behavior of gene caused by administration of chemical substance, Gene No. 6303: −
  Behavior of gene caused by administration of chemical substance, Gene No. 5878: −
  Behavior of gene caused by administration of chemical substance, Gene No. 1131: −
  Behavior of gene caused by administration of chemical substance, Gene No. 1562: −
  Behavior of gene caused by administration of chemical substance, Gene No. 1741: −
  Behavior of gene caused by administration of chemical substance, Gene No. 893: −
  Behavior of gene caused by administration of chemical substance, Gene No. 6026: −
  Behavior of gene caused by administration of chemical substance, Gene No. 154: −
  Behavior of gene caused by administration of chemical substance, Gene No. 1993: −
  Behavior of gene caused by administration of chemical substance, Gene No. 813: −
  Behavior of gene caused by administration of chemical substance, Gene No. 2494: −
  Behavior of gene caused by administration of chemical substance, Gene No. 2546: −
  Behavior of gene caused by administration of chemical substance, Gene No. 3776: −
  Behavior of gene caused by administration of chemical substance, Gene No. 3929: −
  Behavior of gene caused by administration of chemical substance, Gene No. 1119: −
  Behavior of gene caused by administration of chemical substance, Gene No. 6742: −
  Behavior of gene caused by administration of chemical substance, Gene No. 5634: +
  Behavior of gene caused by administration of chemical substance, Gene No. 5726: −

## COc1ccc2c(c1)c(CC(=O)O)c(C)n2C(=O)c1ccc(Cl)cc1 [TS085, Indomethacin]
  Behavior of gene caused by administration of chemical substance, Gene No. 4846: −
  Behavior of gene caused by administration of chemical substance, Gene No. 2026: −
  Behavior of gene caused by administration of chemical substance, Gene No. 4218: −
  Behavior of gene caused by administration of chemical substance, Gene No. 6182: −
  Behavior of gene caused by administration of chemical substance, Gene No. 5600: −
  Behavior of gene caused by administration of chemical substance, Gene No. 1494: −
  Behavior of gene caused by administration of chemical substance, Gene No. 2045: −
  Behavior of gene caused by administration of chemical substance, Gene No. 2203: −
  Behavior of gene caused by administration of chemical substance, Gene No. 533: −
  Behavior of gene caused by administration of chemical substance, Gene No. 725: −
  Behavior of gene caused by administration of chemical substance, Gene No. 1163: −
  Behavior of gene caused by administration of chemical substance, Gene No. 4973: −
  Behavior of gene caused by administration of chemical substance, Gene No. 4095: −
  Behavior of gene caused by administration of chemical substance, Gene No. 1334: −
  Behavior of gene caused by administration of chemical substance, Gene No. 6620: −
  Behavior of gene caused by administration of chemical substance, Gene No. 6303: −
  Behavior of gene caused by administration of chemical substance, Gene No. 5878: −
  Behavior of gene caused by administration of chemical substance, Gene No. 1131: −
  Behavior of gene caused by administration of chemical substance, Gene No. 1562: −
  Behavior of gene caused by administration of chemical substance, Gene No. 1741: −
  Behavior of gene caused by administration of chemical substance, Gene No. 893: −
  Behavior of gene caused by administration of chemical substance, Gene No. 6026: −
  Behavior of gene caused by administration of chemical substance, Gene No. 154: −
  Behavior of gene caused by administration of chemical substance, Gene No. 1993: −
  Behavior of gene caused by administration of chemical substance, Gene No. 813: −
  Behavior of gene caused by administration of chemical substance, Gene No. 2494: −
  Behavior of gene caused by administration of chemical substance, Gene No. 2546: −
  Behavior of gene caused by administration of chemical substance, Gene No. 3776: −
  Behavior of gene caused by administration of chemical substance, Gene No. 3929: −
  Behavior of gene caused by administration of chemical substance, Gene No. 1119: −
  Behavior of gene caused by administration of chemical substance, Gene No. 6742: −
  Behavior of gene caused by administration of chemical substance, Gene No. 5634: −
  Behavior of gene caused by administration of chemical substance, Gene No. 5726: −
